Results on three substances are retold here after US6881577B2, “Method for improving transfection efficiency” (Max-Delbrück-Centrum für Molekulare Medizin, priority 2000, dated 2005).

The nature of data set [1]: Dynamic light scattering of peptide/DNA complexes (apparent size, light scattering intensity). The settings on record: for relative size of the complexes on dilution: peptide/DNA complexes diluted up to 1:16, FIGS. 13 and 14. The class given is physicochemical. As to the method: In order to exclude the possibility that the observed enhancement of the transfection efficiency was mainly related to a more favorable complex formation process when using the K16-VprN peptide, size measurements (FIG. 11) and the determination of the relative particle number (FIG. 12) using dynamic light scattering were performed. […] Indeed, at a peptide to DNA charge ratio of 3 the K16-VprN peptide generates a three-fold increase of the light scattering intensity and an increase of the reporter gene expression of at least 100-times, as compared to K16-mVprN. At a peptide to DNA charge ratio of 9 the light scattering intensity increases twice as compared to charge ratio 3. However, in these conditions the reporter gene expression only increases 10 fold.
The complexes were subsequently diluted up to 1:16 and subjected to dynamic light scattering measurements.

In data set [2] the test system is human colon carcinoma cells (HCT 116). As to the kind of experiment: Transfection of HCT 116 cells with plasmid DNA/peptide complexes (with or without LIPOFECTIN), luciferase reporter gene expression. Type of data set: cell-based. An excerpt:
Complexes consisting in plasmid DNA, peptide and lipid were formed and used in transfection experiments of human colon carcinoma cells (HCT 116) in vitro. The luciferase reporter gene was used in order to measure the transfection efficiency.
In addition to the construction of the mentioned K16 peptides the invention consists in the construction of DNA-peptide-lipid-complexes. A critical issue is thereby the composition of the complexes through the selection of an appropriate peptide to DNA charge ratio as well as an appropriate amount of the lipid. The procedure of complex formation (involving concentrations, volume, buffer type, incubation time and the order by which the elements are sequentially added to the mixture, see FIGS. 1-3 and 4-6) is also a critical factor determining the transfection efficiency of the system.
Based on the above described procedure for the optimization of DNA-peptide-lipid-complexes different complexes containing plasmid DNA, the K16-CYC peptide and cationic liposome (LIPOFECTIN®) were formed and subsequently used in transfection experiments of HCT 116 cells.
Complexes were formed containing plasmid DNA, the K16-VprN peptide and cationic liposome (LIPOFECTIN®) and subsequently used in transfection experiments of HCT 116 cells.
In both applications, the K16-mVprN peptide was used as a control peptide instead of the K16-VprN peptide.

Setting [3] is: peptide/DNA complex without lipid, FIG. 10.

Turning to “KKKKKKKKKKKKKKKKGGGNEATLELLPELKNPAVRHF (Synthetic peptide sequence, K16-mVprN, that carries 16 lysine residues for the binding of the peptide to the plasmid DNA.)”, the “relative size of the complexes on dilution” value in data set [1] (dynamic light scattering) is on record as “remains nearly constant”.

Regarding “KKKKKKKKKKKKKKKKGGGCNEWTLELLEELKNEAVRHF [K16-VprN]”, the “increase of the reporter gene expression compared to K16-mVprN” value in data set [2] (peptide to DNA charge ratio of 3, without lipid, FIG. 10) is “at least 100 times”. Moreover, the “increase of the reporter gene expression” value in data set [2] (peptide to DNA charge ratio of 9, without lipid, FIG. 10) is given as 10 fold. For the same substance, in data set [2] (setting [3]), the “amount of peptide giving the highest gene expression, less than for K16-mVprN” value stood at 12 times and the “increase of the maximum reporter gene expression level compared to K16-mVprN” value worked out at 10 fold. The “reporter gene expression compared to the control peptide K16-mVprN” value in data set [2] (with and without LIPOFECTIN, FIGS. 9 and 10) was “significant increase”. The “particle size of DNA complexes compared to K16-mVprN” value in data set [1] (dynamic light scattering, FIG. 11) is “no significant difference”. Moreover, the “increase of the light scattering intensity compared to K16-mVprN” value in data set [1] (peptide to DNA charge ratio of 3, FIG. 12) was “three-fold”. The “increase of light scattering intensity compared to charge ratio 3” value in data set [1] (peptide to DNA charge ratio of 9, FIG. 12) was “twice”. The “relative size of the complexes on dilution” value in data set [1] (dynamic light scattering) is reported as “remains nearly constant”.

On to -VKLKVYPLKKKRKP- [K16-CYC], for which, in data set [2] (complexes of plasmid DNA, peptide and LIPOFECTIN (0.5 or 1 μl), FIGS. 7 and 8), the “reporter gene expression following transfection, compared to the K16-NLS peptide” value was “dramatic increase”.
